Measurements published in patent US11213527B2, “Inhibitory effect of low molecular weight compound on cancer and fibrosis” (NATIONAL UNIVERSITY CORPORATION TOTTORI UNIVERSITY, priority 2014, dated 2022).

How the values were obtained:
liver fibrosis = assay: Liver disease model mice (carbon tetrachloride-induced liver fibrosis); format: in vivo, C57BL/6 male mice; details: glycyrrhizin 150 mg/kg, IC-2 10.6 or 21.2 mg/kg intraperitoneally 3 times a week for 4 weeks, vs vehicle
Method: First, 7-week-old C57BL/6 male mice (Japan SLC, Shizuoka, Japan) were subject to 1-week preparatory rearing. Among them, healthy mice were used. The mice were housed in an animal cage at a room temperature of 22±1° C. and a humidity of 50±5% throughout the preparatory rearing and experimental period and were given ad libitum access to food and water.
A microsyringe (ITO CORPORATION, Shizuoka, Japan) was used to intraperitoneally administer carbon tetrachloride (CCl4: Wako Pure Chemical Industries, Ltd., Osaka, Japan) at 0.2 ml/kg, 3 times a week, for 4, 6, or 8 weeks. Carbon tetrachloride was dissolved into cone oil (Wako Pure Chemical Industries, Ltd.) at a concentration of 10%. The resulting solution was used. After this carbon tetrachloride solution was administered for 4 weeks, the mice were divided into a vehicle administration group, a glycyrrhizin administration group, an ICG-001 administration group, and an IC-2 administration group. Then, a microsyringe was used to intraperitoneally administer, 3 times a week for 4 weeks, carbon tetrachloride and a drug solution prepared in accordance with the following process. Note that the carbon tetrachloride and the drug solution were alternately administered with one-day interval.
Glycyrrhizin (TOKYO CHEMICAL INDUSTRY CO., LTD., Tokyo, Japan) was dissolved in physiological saline. The solution was prepared at a concentration of 30 mg/ml while the pH was adjusted to 7.0 with 4 M NaOH liquid. IC-2 and ICG-001 (AdooQ BioScience, California, USA) were each dissolved in a WellSolve (Celeste Corporation, Tokyo, Japan) at a concentration of 40 mg/ml and 10 mg/ml, respectively. Next, the mixture was heated for 10 min in a hot water bath at 60° C. and was then completely dissolved. A 9-fold volume of physiological saline was added to the WellSolve solution in which the above drugs had each been dissolved. […] Note that an IC-2 dosage was determined on the basis of an effective concentration in vitro. […]

cancer stem cells = details: Fbxw7-deficient model mice; cited from earlier work

SMILES	content of hydroxyproline (liver fibrosis)	killing of cancer stem cells (cancer stem cells)
CC1(C)[C@@H](O[C@H]2O[C@H](C(=O)O)[C@@H](O)[C@H](O)[C@H]2O[C@@H]2O[C@H](C(=O)O)[C@@H](O)[C@H](O)[C@H]2O)CC[C@]2(C)[C@H]3C(=O)C=C4[C@@H]5C[C@@](C)(C(=O)O)CC[C@]5(C)CC[C@@]4(C)[C@]3(C)CC[C@@H]12 [glycyrrhizin, Glycyrrhizin, reference compound]	reduced content of hydroxyproline	
Cc1ccc(NC(=O)c2ccc(CN3CCN(C)CC3)cc2)cc1Nc1nccc(-c2cccnc2)n1 [imatinib]		cancer stem cells were killed
